Assay: ATP-removal effect of ATPS and pyrophosphatase, luciferase readout
Type: biochemical
Settings: 100 μM ATP, 40 min at room temperature
Procedure: The ATP-removal effect of the reagent in Example 1 was verified.
ATP sulfurylase was prepared in the following buffer: 50 mM Tris-HCl buffer (pH 7.4)+10 mM MgCl2+20 mM Na2MoO4, where the concentration of each component is the final concentration in the resultant solution.
Reagent for ADP detection: 50 mM Tris-HCl buffer (pH 7.4)+20 mM MgSO4+50 mM KCl+2 mM EDTA+2 mM EGTA+0.1 mM D-luciferin+0.1 mM PEP-K (phosphoenolpyruvate monopotassium salt)+50 μg/mL luciferase+20 U/mL a pyruvate kinase, where the concentration of each component is the final concentration in the resultant solution.
The bioluminescence detection instrument was an EnVision (Perkin Elmer).
Next, 25 μL of ATP ([…]) was added to each well of a 96-well white opaque assay plate, followed by the addition of 25 μL of pyrophosphatase (PPA: 10 U/mL) and ATP sulfurylase (ATPS) at concentrations of 2 μg/mL, 1 μg/mL, and 0.5 μg/mL.
After incubation at room temperature (22° C.-25° C.) for 40 minutes, 50 μL of the reagent for ADP detection was added and mixed uniformly, and the fluorescence values were read after incubation was performed at room temperature for 10 minutes.
After 1 μM ATP+0.1 mM D-luciferin+50 μg/mL luciferase+50 mM Tris-HCl buffer (pH 7.4)+20 mM MgSO4 were incubated at room temperature for 10 minutes, the fluorescence value read was 439,640.
After 0.1 μM ATP+0.1 mM D-luciferin+50 μg/mL luciferase+50 mM Tris-HCl buffer (pH 7.4)+20 mM MgSO4 were incubated at room temperature for 10 minutes, the fluorescence value read was 47,720.
The remaining ATP after the action of ATPS and PPA was determined by comparing with the fluorescence values under conditions of ATP at 1 μM and 0.1 μM (see Table 2). It can be seen that the remaining ATP of 100 μM ATP under the action of ATPS (1 μg/mL) and pyrophosphatase was about 0.006%.

## ATPS
ATPS 0.5 μg/mL + PPA 10 U/mL
  Luminescence (RLU): 3.44E+03 RLU
  Remaining ATP (%): 0.0072%
ATPS 1 μg/mL + PPA 10 U/mL
  Luminescence (RLU): 2.88E+03 RLU
ATPS 2 μg/mL + PPA 10 U/mL
  Luminescence (RLU): 2.24E+03 RLU
  Remaining ATP (%): 0.0047%
